This passage reports mutagenic call results from PubChem BioAssay AID1259407 (Chemical Carcinogenesis Research Information System (CCRIS), 2018).

This series concerns CCRIS mutagenicity, Ames/micronucleus/aberration tests. Description: CCRIS mutagenicity studies.
[1] abbreviates: Test System: AMES SALMONELLA TYPHIMURIUM, Strain/Indicator: TA97, Metabolic Activation: NONE, Method: PREINCUBATION
Setting [2] is: Test System: AMES SALMONELLA TYPHIMURIUM, Strain/Indicator: TA98, Metabolic Activation: NONE, Method: PREINCUBATION
Setting [3] is: Test System: AMES SALMONELLA TYPHIMURIUM, Strain/Indicator: TA100, Metabolic Activation: NONE, Method: PREINCUBATION
Where [4] appears, read: Test System: AMES SALMONELLA TYPHIMURIUM, Strain/Indicator: TA100, Metabolic Activation: NONE, Method: STANDARD PLATE.

Calls of active or inactive are those of the source. How the calls were made is not given here.

As to `CC(C)C(C)(C)C(C)(C)C(C)(C)S`, the mutagenic call was “inactive; negative” (Test System: AMES SALMONELLA TYPHIMURIUM, Strain/Indicator: TA97, Metabolic Activation: HAMSTER, LIVER, S-9, AROCLOR 1254 (10%), Method: PREINCUBATION); “inactive; negative” (Test System: AMES SALMONELLA TYPHIMURIUM, Strain/Indicator: TA97, Metabolic Activation: HAMSTER, LIVER, S-9, AROCLOR 1254 (10 OR 30%), Method: PREINCUBATION); “inactive; negative” (Test System: AMES SALMONELLA TYPHIMURIUM, Strain/Indicator: TA97, Metabolic Activation: HAMSTER, LIVER, S-9, AROCLOR 1254 (30%), Method: PREINCUBATION); “inactive; negative” under setting [1]; “inactive; negative” (Test System: AMES SALMONELLA TYPHIMURIUM, Strain/Indicator: TA97, Metabolic Activation: RAT, LIVER, S-9, AROCLOR 1254 (10 OR 30%), Method: PREINCUBATION); “inactive; negative” (Test System: AMES SALMONELLA TYPHIMURIUM, Strain/Indicator: TA98, Metabolic Activation: HAMSTER, LIVER, S-9, AROCLOR 1254 (10 OR 30%), Method: PREINCUBATION). In addition, the mutagenic call is “inactive; negative” under setting [2]; “inactive; negative” (Test System: AMES SALMONELLA TYPHIMURIUM, Strain/Indicator: TA98, Metabolic Activation: RAT, LIVER, S-9, AROCLOR 1254 (10 OR 30%), Method: PREINCUBATION); “inactive; negative” (Test System: AMES SALMONELLA TYPHIMURIUM, Strain/Indicator: TA100, Metabolic Activation: HAMSTER, LIVER, S-9, AROCLOR 1254 (10 OR 30%), Method: PREINCUBATION); “inactive; negative” under setting [3]; “inactive; negative” (Test System: AMES SALMONELLA TYPHIMURIUM, Strain/Indicator: TA100, Metabolic Activation: RAT, LIVER, S-9, AROCLOR 1254 (10 OR 30%), Method: PREINCUBATION); “inactive; negative” (Test System: AMES SALMONELLA TYPHIMURIUM, Strain/Indicator: TA1535, Metabolic Activation: HAMSTER, LIVER, S-9, AROCLOR 1254 (10 OR 30%), Method: PREINCUBATION). For the same compound, the mutagenic call is “inactive; negative” (Test System: AMES SALMONELLA TYPHIMURIUM, Strain/Indicator: TA1535, Metabolic Activation: NONE, Method: PREINCUBATION) and “inactive; negative” (Test System: AMES SALMONELLA TYPHIMURIUM, Strain/Indicator: TA1535, Metabolic Activation: RAT, LIVER, S-9, AROCLOR 1254 (10 OR 30%), Method: PREINCUBATION).

For the compound `O=C(O)CCC(=O)O`, the mutagenic call is “inactive; negative” under setting [1]; “inactive; negative” (Test System: AMES SALMONELLA TYPHIMURIUM, Strain/Indicator: TA97, Metabolic Activation: RAT, LIVER, S-9, AROCLOR 1254, Method: PREINCUBATION); “inactive; negative” (Test System: AMES SALMONELLA TYPHIMURIUM, Strain/Indicator: TA102, Metabolic Activation: NONE, Method: PREINCUBATION); “inactive; negative” (Test System: AMES SALMONELLA TYPHIMURIUM, Strain/Indicator: TA102, Metabolic Activation: RAT, LIVER, S-9, AROCLOR 1254, Method: PREINCUBATION).

`c1cc2c3c(cccc3c1)C1NC21` (stereo unspecified): the mutagenic call reads like this: (Test System: AMES SALMONELLA TYPHIMURIUM, Strain/Indicator: TA98, Metabolic Activation: NONE, Method: STANDARD PLATE) “active; positive”; under setting [4], “active; positive”; (Test System: AMES SALMONELLA TYPHIMURIUM, Strain/Indicator: TA1537, Metabolic Activation: NONE, Method: STANDARD PLATE) “active; positive”.

Regarding `O=c1c(O)c2c(c3c1ccc1[nH]cccc13)O2`, under setting [4], the mutagenic call is “inactive; negative”.

`C[C@]12CC[C@@H]3c4cc(O)c(O)cc4CC[C@H]3[C@@H]1CC[C@@H]2O`: the mutagenic call reads like this: (End Point: In vitro micronucleus, Test System: Human lymphocytes, Metabolic Activation: None) “active; positive only at 10 ug/ml in cytochalasin block micronuclei; no dose response”; (Test System: Ames Salmonella typhimurium, Strain/Indicator: TA98, Metabolic Activation: None, Method: Standard plate) “inactive; negative”; (Test System: Ames Salmonella typhimurium, Strain/Indicator: TA98, Metabolic Activation: Rat, liver, S-9, Method: Standard plate) “inactive; negative”; (Test System: Ames Salmonella typhimurium, Strain/Indicator: TA100, Metabolic Activation: None, Method: Standard plate) “inactive; negative”; (Test System: Ames Salmonella typhimurium, Strain/Indicator: TA100, Metabolic Activation: Rat, liver, S-9, Method: Standard plate) “inactive; negative”.

Regarding `CCN(CC)S(=O)(=O)c1ccc(NC(C)=O)cc1`, the mutagenic call was “inactive; negative” under setting [2]; “inactive; negative” (Test System: AMES SALMONELLA TYPHIMURIUM, Strain/Indicator: TA98, Metabolic Activation: RAT, LIVER, S-9, AROCLOR 1254, Method: PREINCUBATION); “inactive; negative” under setting [3]; “inactive; negative” (Test System: AMES SALMONELLA TYPHIMURIUM, Strain/Indicator: TA100, Metabolic Activation: RAT, LIVER, S-9, AROCLOR 1254, Method: PREINCUBATION).
